Data from patent US4267192A, “Method for treating inflammation” (priority 1980, dated 1981).

Tests used:
[1] = molecular target: T1, prostaglandin synthetase (Ovis aries, UniProt P05979); assay: in vitro prostaglandin synthetase activity assay (PGE2 formation from 14C-arachidonic acid); format: biochemical, sheep; set-up: microsomal fraction of sheep vesicles; from tissue; host or cells: sheep seminal vesicles, microsomal fraction (105,000×g precipitate); details: for cpm (× 1000), in vitro PGE2 biosynthesis: sheep seminal vesicle microsomes
T1 sequence (P05979 25-600): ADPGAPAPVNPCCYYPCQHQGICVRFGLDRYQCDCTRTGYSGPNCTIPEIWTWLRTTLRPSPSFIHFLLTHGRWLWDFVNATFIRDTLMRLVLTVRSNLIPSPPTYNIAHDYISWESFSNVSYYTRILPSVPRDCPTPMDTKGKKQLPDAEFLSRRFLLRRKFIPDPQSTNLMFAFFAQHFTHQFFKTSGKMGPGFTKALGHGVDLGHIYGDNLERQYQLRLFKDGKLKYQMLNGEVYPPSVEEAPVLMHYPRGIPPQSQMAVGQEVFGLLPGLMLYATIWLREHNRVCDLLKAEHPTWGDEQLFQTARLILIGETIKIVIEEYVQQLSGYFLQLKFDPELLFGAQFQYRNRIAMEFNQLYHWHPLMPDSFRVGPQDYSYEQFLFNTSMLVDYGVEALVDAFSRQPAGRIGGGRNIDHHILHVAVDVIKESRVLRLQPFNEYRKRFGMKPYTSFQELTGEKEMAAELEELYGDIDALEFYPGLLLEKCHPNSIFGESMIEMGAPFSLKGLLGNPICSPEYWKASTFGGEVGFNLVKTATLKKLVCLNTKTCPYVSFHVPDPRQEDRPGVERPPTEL
Procedure: Frozen sheep seminal vesicles are cleaned of fat and connective tissue and then minced. Ten grams of the minced tissue are homogenized in 20 ml. of 0.125 M Na-EDTA buffer, pH 8.3, employing polytron homogenizer. The homogenate is then centrifuged at 1,200×g. for 10 minutes and the resulting supernatant filtered through two layers of cheese cloth. The filtrate is then centrifuged at 10,000×g. for 20 minutes. The supernatant is then centrifuged at 105,000×g. for 1 hour. The precipitate is dissolved once with Na-EDTA buffer and recentrifuged at 105,000×g. for 1 hour. The final microsomal fraction is then dissolved in 1.0 ml. of Na-EDTA buffer and stored in a freezer.
The incubation buffer medium (1.0 ml. total) consists of 500 μg of lyophilized bovine serum albumin, 5×10^-4 M hydroquinone, 1.0×10^-2 M reduced glutathione, 3×10^-6 M^14 C arachidonic acid (AA) in 0.02 ml. of methanol, 0.01 ml. of the tested drugs in methanol at the desired concentrations, and the microsomal fraction (1.2 mg. protein/ml. incubation medium). This medium is incubated for one hour at 37° C. At the end of this period, enzyme reaction is terminated by the addition of 0.25 ml. of 1 N HCl. 15 μg of non-radioactive Prostaglandin E2 (PGE2), Prostaglandin F2α (PGF2α) and AA (5 μg each) in an ethanol solution is then added to all of the acidified reaction mixtures. The reaction products are extracted with ethylacetate (2×2 ml.) and the total organic solution of 4 ml. is washed with 1.0 ml. of triple distilled water. 3.0 ml. of the total ethylacetate solution is removed and evaporated to dryness under nitrogen gas. The residue is then re-dissolvedin 50 μl. of 100% ethanol and spotted on silica gel GF plates and subjected to chromatograph. Only the organic phase of the ethyl acetate:water:iso-octane:acetic acid system (11:10:5:2) is used as solvent in the chromatography system.
After exposure to iodine vapor, the PGE2 and AA spots are scraped from the TLC plate, put into separate vials, and mixed with 10.0 ml. of Instagel scintillation cocktail for counting in a Nuclear-Chicago Mark II liquid scintillation counter.
Results are expressed as counts per minute (cpm), evidencing in vitro PGE2 biosynthesis.

[2] = tested on: established adjuvant arthritis in rats; assay: established adjuvant arthritis, dosing on days 16, 17 and 18; details: rat
Procedure: Polyarthritis is induced in groups of 6-10 Sprague-Dawley rats weighing between 180-220 g. by a subcutaneous injection into the right paw of dessicated Mycobacterium butyricum or tuberculosis (0.5 mg/0.1 ml.) suspended in light mineral oil. […] Both hind paw volumes (ml.) are measured by mercury plethysmograph on day 0 or at the time of injection of the complete adjuvant. Increases in paw volume (viz. edema) are determined for both paws on days 4 and 16. The change in body weight from day 0 to day 16 is also calculated. Statistical analysis of differences in paw edemas and body weight is performed by using the unpaired. Student's t-test.
The changes in left paw edema are measured at the end of 19 days, 23 days and 30 days.

O=C(O)C=C1c2ccccc2C=Cc2ccccc21 [DCHA]
cpm (× 1000), in vitro PGE2 biosynthesis ([1]; 30 μg/ml): 6.6 ± .3 cpm (× 1000)
cpm (× 1000), in vitro PGE2 biosynthesis ([1]; 50 μg/ml): 5.2 ± .4 cpm (× 1000)
cpm (× 1000), in vitro PGE2 biosynthesis ([1]; 60 μg/ml): 5.1 ± .2 cpm (× 1000)
cpm (× 1000), in vitro PGE2 biosynthesis ([1]; 100 μg/ml): 3.0 ± .1 cpm (× 1000)
cpm (× 1000), in vitro PGE2 biosynthesis ([1]; 120 μg/ml): 3.3 ± .4 cpm (× 1000)
cpm (× 1000), in vitro PGE2 biosynthesis ([1]; 150 μg/ml): 2.1 ± .3 cpm (× 1000)
cpm (× 1000), in vitro PGE2 biosynthesis ([1]; 200 μg/ml): 2.0 ± .1 cpm (× 1000)
IC50 ([1]; calculated from Table 6, read-out: 50% inhibitory concentration (converted)): 259 µM
inhibitory effect on prostaglandin synthetase activity ([1]; in words): does not have an appreciable inhibitory effect on prostaglandin synthetase activity
return to pretreatment or higher edema levels ([2]; end of 30 days, 12 days after last dosing): no significant return to pretreatment or even higher edema levels
% Change from Control, left paw edema (day 0-19) ([2]; oral 10 mg/kg, days 16, 17, 18): -20%
% Change from Control, left paw edema (day 0-23) ([2]; oral 10 mg/kg, days 16, 17, 18): -15%
% Change from Control, left paw edema (day 0-30) ([2]; oral 10 mg/kg, days 16, 17, 18): -21%
Increase in left paw edema ml. (day 0-19) ([2]; oral 10 mg/kg, days 16, 17, 18): 0.78 ± 0.11 mL
Increase in left paw edema ml. (day 0-23) ([2]; oral 10 mg/kg, days 16, 17, 18): 0.82 ± 0.13 mL
Increase in left paw edema ml. (day 0-30) ([2]; oral 10 mg/kg, days 16, 17, 18): 1.20 ± 0.16 mL
% Change from Control, left paw edema (day 0-19) ([2]; oral 30 mg/kg, days 16, 17, 18): -26%
% Change from Control, left paw edema (day 0-23) ([2]; oral 30 mg/kg, days 16, 17, 18): -10%
% Change from Control, left paw edema (day 0-30) ([2]; oral 30 mg/kg, days 16, 17, 18): -29%
Increase in left paw edema ml. (day 0-19) ([2]; oral 30 mg/kg, days 16, 17, 18): 0.75 ± 0.11 mL
Increase in left paw edema ml. (day 0-23) ([2]; oral 30 mg/kg, days 16, 17, 18): 0.87 ± 0.16 mL
Increase in left paw edema ml. (day 0-30) ([2]; oral 30 mg/kg, days 16, 17, 18): 1.07 ± 0.17 mL
% Change from Control, left paw edema (day 0-19) ([2]; oral 90 mg/kg, days 16, 17, 18): -42%
% Change from Control, left paw edema (day 0-23) ([2]; oral 90 mg/kg, days 16, 17, 18): -24%
% Change from Control, left paw edema (day 0-30) ([2]; oral 90 mg/kg, days 16, 17, 18): -32%
Increase in left paw edema ml. (day 0-19) ([2]; oral 90 mg/kg, days 16, 17, 18): 0.59 ± 0.06 mL
Increase in left paw edema ml. (day 0-23) ([2]; oral 90 mg/kg, days 16, 17, 18): 0.73 ± 0.10 mL
Increase in left paw edema ml. (day 0-30) ([2]; oral 90 mg/kg, days 16, 17, 18): 1.03 ± 0.11 mL
effect on left paw edema of rats with established adjuvant arthritis ([2]; oral, days 16, 17, 18): significant decrease in the left paw edema
